Reference: US11584711B2, “2,2,2-trifluoroacetic acid 1-(2,4-dimethylphenyl)-2-[(3-methoxyphenyl)methylene] method of making the same” (Abrexa Pharmaceuticals, Inc., priority 2018, dated 2023)
≈ marks a conversion by molar mass, not a printed value. Entries after “also recorded” stand apart in the source; their conditions may differ. Like-named read-outs stand apart in the source and are kept apart here.

Columns and labels:
[1] = Heat storage / variable temperature XRD form conversion; assay type: physicochemical; conditions: for form conversion by XRD: 40° C. oven over weekend
Experimental: Recrystallization Using Heat: Amorphous/glass samples from Panel 1 were placed in a vacuum oven at 60° C. for 6 days. […] A sample of Form I was placed in a 40° C. in oven over a weekend.

[2] = Hygroscopicity-Dynamic Vapor Sorption (DVS); assay type: physicochemical; conditions: 25° C.; for tendency to hydrate formation (DVS): 0 to 95% RH; for total weight loss (DVS): at 95% RH
Experimental: Hygroscopicity-Dynamic Vapor Sorption (DVS): DVS is a gravimetric screening technique that measures how quickly and how much of a solvent (water) is adsorbed by a sample. The relative humidity or vapor concentration surrounding the sample is varied while the change in mass of the sample is measured. […] The mass values at each relative humidity step are used to generate the isotherm. Isotherms are divided in two components: sorption for increasing humidity steps and desorption for decreasing humidity steps.
The samples were analyzed using a TA Q2000 automated dynamic vapor sorption analyzer. The samples were dried at 40° C. for 5 hours and then cooled to 25° C. with a dry nitrogen purge over them until they no longer lost mass at 0% RH. The samples were then subjected to 0 to 95% RH, back to 0% RH at 25° C. in 5% RH steps.

[3] = Grinding; assay type: physicochemical; conditions: ball mill 1 minute at 4800 oscillations per minute
Experimental: Grinding: Form I was ground using a Crescent Wig-L-Bug ball mill for 1 minute at 4800 oscillations per minute (3.2 m/s).

[4] = Static Vapor Sorption Study; assay type: physicochemical; conditions: 75% RH static humidity chamber, ambient temperature, after 5 and 12 days
Text: Static Vapor Sorption Study: A […] vapor sorption study was done in a sealed humidity chamber with an automatic moisture sorption balance. Data collected during dynamic vapor sorption studies often are not at thermodynamic equilibrium. To determine if the Form I and Form II material form a hydrate over time, samples were monitored in a 75% static humidity chamber.
In these studies, samples were stored in open Petri dishes in a chamber containing a saturated salt solution to maintain the relative vapor pressure. A solution of saturated sodium chloride (75% RH) salt at ambient temperature was used.
The samples were examined gravimetrically after 5 and 12 days.

[5] = Polymorph screen summary of solid state forms; assay type: physicochemical; conditions: room temperature and pressure
Text: The raw diffraction data generated from the polymorph screening experiments were categorized into two polymorphic forms. Samples of these different forms were used to perform additional experiments (DSC, TGA, HSM, etc.) to refine the forms.
The main result is the discovery of two anhydrous polymorphic forms of J147. The polymorphic forms isolated in this Example were designated I and II. At room temperature and pressure Form II is the thermodynamically form of J147. Form I is the metastable form at room temperature and pressure.

[6] = Competitive Slurry Experiments; assay type: physicochemical; conditions: ambient temperature and pressure
Experimental: These experiments rely on the solubility differences of different polymorphic forms.
The slurry experiments were performed by exposing excess material of Forms I and II to a small volume of solvent/water and agitating the resulting suspensions for several days at ambient temperature. The solids were filtered and analyzed by XRD and DSC to determine the resulting form. To avoid possible desolvation or physical change after isolation, the sample was not dried before x-ray analysis.

[7] = Visual Solubility Measurement; assay type: physicochemical; conditions: thermodynamic from solid, ambient temperature, read-out: Approximate Solubility
Experimental: Visual Solubility Measurement: Approximately 80 mg of J147 was placed into each of 25 vials. Solvent was added and vials were stirred for several minutes at ambient temperature, followed by visual observation for remaining solids. The solvent was incrementally added until the solids were dissolved, or until a maximum volume of solvent was added and the experiment was terminated. These stock solutions were used to set up further panels of experiments.

[8] = test system: neurotoxicity pathways related to aging and neurodegenerative diseases; conditions: assays indicating distinct neurotoxicity pathways; cited from earlier work
[9] = test system: normal rodents; conditions: cited from earlier work
[10] = test system: transgenic AD mouse model; conditions: cited from earlier work

Question: For `COc1cccc(/C=N/N(C(=O)C(F)(F)F)c2ccc(C)cc2C)c1` [Amorphous/glass samples from Panel 1], which “form by XRD after heating” value ([1]; vacuum oven at 60° C. for 6 days) is on record?
Answer: Its value is “XRD pattern of Form II”.

Question: Which “tendency to hydrate formation (DVS)” value [2] does the source give for `COc1cccc(C=NN(C(=O)C(F)(F)F)c2ccc(C)cc2C)c1` [Form I, 2,2,2-trifluoroacetic acid 1-(2,4-Dimethylphenyl)-2-[(3-methoxyphenyl)methylene]hydrazide] here?
Answer: The value was “does not appear to be prone to hydrate formation; also recorded: did not appear to be prone to hydrate formation”.

Question: What about the “total weight loss (DVS)” value [2] of the same compound?
Answer: Its value is “approximately 0.5%”.

Question: And the “form conversion by XRD” value [1]?
Answer: The value was “conversion to Form II”.

Question: What about the “form conversion by variable temperature XRD” value ([1]; held at 35° C. over a weekend) of the same compound?
Answer: The value was “no form conversion”.

Question: What about the “form transformation by XRD after grinding” value [3] of the same compound?
Answer: The value was “no transformation”.

Question: And the “hydrate formation (gravimetric weight change)” value [4]?
Answer: The value was “no hydrate formation”.

Question: What about the “Description (thermodynamic stability of form)” value [5] of the same compound?
Answer: Its value is “Metastable”.

Question: With `COc1cccc(C=NN(C(=O)C(F)(F)F)c2ccc(C)cc2C)c1` [Form II, 2,2,2-trifluoroacetic acid 1-(2,4-Dimethylphenyl)-2-[(3-methoxyphenyl)methylene]hydrazide] as the compound, how does the “tendency to hydrate formation (DVS)” value [2] read?
Answer: The value was “does not appear to be prone to hydrate formation”.

Question: What about the “total weight loss (DVS)” value [2] of the same compound?
Answer: Its value is “approximately 0.5%”.

Question: What about the “solubility and thermodynamic stability relative to Form I” value [6] of the same compound?
Answer: The value was “less soluble, more thermodynamically stable”.

Question: What about the “form conversion by XRD” value [1] of the same compound?
Answer: Its value is “no form conversion”.

Question: And the “hydrate formation (gravimetric weight change)” value [4]?
Answer: Its value is “no hydrate formation”.

Question: And the “Description (thermodynamic stability of form)” value [5]?
Answer: Its value is “Thermodynamically”.

Question: For `COc1cccc(/C=N/N(C(=O)C(F)(F)F)c2ccc(C)cc2C)c1` [Form J147, 2,2,2-trifluoroacetic acid 1-(2,4-Dimethylphenyl)-2-[(3-methoxyphenyl)methylene] hydrazide], which solubility ([7]; organic solvent or mixture, 1-butanol) is on record?
Answer: Its solubility is 40 mg/mL (≈ 114 mM).

Question: And the solubility ([7]; organic solvent or mixture, 1-propanol)?
Answer: The solubility was greater than 80 mg/mL.

Question: What about the solubility ([7]; organic solvent or mixture, 2-butanol) of the same compound?
Answer: The solubility was 40 mg/mL (≈ 114 mM).

Question: What about the solubility ([7]; organic solvent or mixture, 2-propanol) of the same compound?
Answer: The solubility was 40 mg/mL (≈ 114 mM).

Question: And the solubility ([7]; organic solvent or mixture, acetone)?
Answer: The solubility was greater than 80 mg/mL.

Question: And the solubility ([7]; organic solvent or mixture, acetonitrile (ACN))?
Answer: Its solubility is greater than 80 mg/mL.

Question: And the solubility ([7]; organic solvent or mixture, butyl amine)?
Answer: The solubility was greater than 80 mg/mL.

Question: What about the solubility ([7]; organic solvent or mixture, chloroform) of the same compound?
Answer: Its solubility is greater than 80 mg/mL.

Question: And the solubility ([7]; organic solvent or mixture, dichloromethane (DCM))?
Answer: Its solubility is greater than 80 mg/mL.

Question: What about the solubility ([7]; organic solvent or mixture, dimethyl formamide (DMF)) of the same compound?
Answer: Its solubility is greater than 80 mg/mL.

Question: What about the solubility ([7]; organic solvent or mixture, dimethylacetamide (DMA)) of the same compound?
Answer: Its solubility is greater than 80 mg/mL.

Question: What about the solubility ([7]; organic solvent or mixture, ethanol) of the same compound?
Answer: Its solubility is greater than 80 mg/mL.

Question: What about the solubility ([7]; organic solvent or mixture, ethyl acetate) of the same compound?
Answer: The solubility was greater than 80 mg/mL.

Question: What about the solubility ([7]; organic solvent or mixture, heptane) of the same compound?
Answer: Its solubility is 8 mg/mL (≈ 22.8 mM).

Question: What about the solubility ([7]; organic solvent or mixture, isopropyl acetate) of the same compound?
Answer: Its solubility is greater than 80 mg/mL.

Question: And the solubility ([7]; organic solvent or mixture, isopropyl ether)?
Answer: Its solubility is greater than 80 mg/mL.

Question: What about the solubility ([7]; organic solvent or mixture, methanol) of the same compound?
Answer: Its solubility is greater than 80 mg/mL.

Question: And the solubility ([7]; organic solvent or mixture, methyl ethyl ketone (MEK))?
Answer: Its solubility is greater than 80 mg/mL.

Question: What about the solubility ([7]; organic solvent or mixture, methyl tert butyl ether (MTBE)) of the same compound?
Answer: Its solubility is greater than 80 mg/mL.

Question: What about the solubility ([7]; organic solvent or mixture, nitromethane) of the same compound?
Answer: Its solubility is greater than 80 mg/mL.

Question: And the solubility ([7]; organic solvent or mixture, pyridine)?
Answer: The solubility was greater than 80 mg/mL.

Question: What about the solubility ([7]; organic solvent or mixture, tetrahydrofuran (THF)) of the same compound?
Answer: The solubility was greater than 80 mg/mL.

Question: And the solubility ([7]; organic solvent or mixture, toluene)?
Answer: The solubility was greater than 80 mg/mL.

Question: What about the solubility ([7]; organic solvent or mixture, trifluoroethanol) of the same compound?
Answer: Its solubility is greater than 80 mg/mL.

Question: What about the solubility ([7]; water) of the same compound?
Answer: The solubility was less than 1.6 mg/mL.

Question: What about the EC50 [8] of the same compound?
Answer: Its EC50 is 10 to 200 nM.

Question: And the effect on memory [9]?
Answer: The effect on memory was “improve memory”.

Question: And the “effect on synaptic proteins and cognitive decline” value [10]?
Answer: The value was “prevent the loss of synaptic proteins and cognitive decline”.
